# Measured values reported in patent US20070275953A1 (priority 2003, published 2007).
# Where two headings read alike, the source gives them in different places.
# How the values were obtained:
# [1] = test system: HIV-1 with WT (wild type) RT in P4 cells; experiment: Anti-HIV assay on P4 cell line, WT RT; type: cell-based; details: P4 cell line, WT RT; for EC50: read-out: EC50 WT
# Procedure: (§1) For the antiviral and the cytotoxicity assays, the drugs were diluted in complete DMEM medium. In these experiments, drugs were diluted in triplicate wells in a 96-well plate in six, 5 fold serial dilutions.
# (§2) Two days later, co-cultivation with SupT1 cells (a human T-cell lymphoma cell line) was initiated to facilitate rapid production of progeny virions. Production of virus was measured by using the Innotest HIV Antigen mAb p24 kit (Innogenetics). At the peak of production cultures were harvested and filtered. The virus stocks were stored at −80° C. until used.
# Anti-HIV activity and cytotoxicity of the compounds were tested on a P4 cell line. […] The P4 cells were cultured in complete DMEM medium supplemented with 10% fetal bovine serum (FBS), 0.5% of Penicillin/Streptomycin and G418 at 0.5 mg/ml. Exponentially growing cells were trypsinized, centrifuged and split twice weekly at 5.10^4 cells/ml.
# The P4 cells are HIV-infectible Hela-CD4 cells that carry the bacterial lacZ gene under the control of the HIV-1 long terminal repeat (LTR). In this cell line, transcription of the LacZ gene is driven by the HIV-1 LTR. […] In other words, in this system, the expression level of the β-galactosidase gene is proportional to the viral replication.
# Briefly, in the anti-HIV assay 100 Ål of P4 cells were plated in 96-well plate at a concentration of 0.4 10^5 cells/ml and incubated at 37° C., 5% CO2. After 48 h, the medium was removed and 100 Ål of the different drugs dilutions were added to the cells. Four hours after the addition of the drugs all cells were infected with equal amount of cell-free virus, corresponding to 100 ng of HIV p24 antigen. After 48 h of incubation at 37° C., 5% CO2, β-galactosidase activity was measured using chlorophenol red-β-D-galactopyranoside assays.
# Each assay was performed a minimum of three times. The 50% effective concentration (Ec50) was calculated from each dose response curve using the CurveExpert 1.3 software.
# [2] = test system: HIV-1 with WT (wild type) RT in MT4 cells; experiment: Anti-HIV assay on MT4 cell line, WT RT; type: cell-based
# Procedure: as §2, with “Wurzburg Jurkat T cells (subclone JR) were transfected with 10 μg of the circularly permuted infectious molecular clone HIVNL4-3 (Adachi et al., 1986. J. Virol, 59 (2), p 284-291). Two” for “Two”
# Anti-HIV activity of the compounds was tested on MT-4 cell line. The MT-4 cell line (Larder et al. 1989. Sciences, Vol. 243 p 1731) was received from the NIH AIDS Research and Reference Reagent Program. These cells were cultured in RPMI medium supplemented with 10% fetal bovine serum (FBS), and 1% Penicillin/Streptomycin. The cultures were split regularly to keep cells densities between 0.3 to 1.2 10^6 cells/ml.
# The MT-4 cells rapidly die upon infection by HIV. In this system there is an inverse correlation between cells survival and the amount of viral replication.
# Briefly, in the anti-HIV assay exponentially growing MT-4 cells were infected with HIV-1. 100 μl of infected MT-4 cells were seeded in 96-well plate at a concentration of 0.4 10^5 cells/ml, and 100 μl of the different drugs dilutions were added to the cells. After 4 days of incubation at 37° C., 5% CO2, cells survival was measured using MTS (3-(4-5-dimethylthiazol-2-yl)-5-(−(3-carboxymethoxyphenyl)-2-(4-sulfophenyl)-2H-tetrazolium) assays. This compound is reduced by viable cells in a colored soluble formazan salt.
# The absorbance was measured on a Benchmark™ Microplate Reader (Biorad) (λ=490 nm) and compared with 12 cell control replicates (nor virus nor drug added) and 12 virus control wells (no drug added). Each assay was performed a minimum of three times. The 50% effective concentration (EC50) was calculated from each dose response curve using the CurveExpert 1.3 software.
# [3] = Cytotoxicity (CC50), MTT assay on P4 cells; type: cell-based; details: human
# Procedure: as §1
# (§3) The 50% cytotoxic concentration (CCso) was determined using a protocol adapted from Pauwels et al. (1988. J. Virol. Methods 20(4):309-21). Briefly, flat bottom 96-well plates were filled with 50 μl of complete medium containing 5.10^3 P4 cells. 2 hours later 50 μl of drug solution were added to the cells. Drugs (dissolved in DMEM, see above) were diluted in six, 5-fold serial dilutions from stock solutions in triplicate wells of a 96-well plate. Cells and compounds were incubated at 37° C. in growth medium for 3 days. Cell viability was determined by MTT assays using the Roche Cell Proliferation KIT. The absorbance (λ=570 nm) was measured on a Benchmark™ Microplate Reader (Biorad) and compared with 12 cell control replicates (no drug added). Each assay was performed at least three times for a total of at least nine replicate wells. This method detects both cytostatic and cytolytic effects of drugs.
# [4] = molecular target: T1, HIV-1 reverse transcriptase (Human immunodeficiency virus type 1 group M subtype B, UniProt P04585); experiment: RT activity after separation of unbound compound on micro-spin desalting column; type: biochemical; details: after preincubation with RT
# T1 construct: fixed-time assay for HIV-1 reverse transcriptase RNA dependent DNA polymerase activity; RT was purchased from Calbiochem; purchased Calbiochem CAL382129-500
# Procedure: After the preincubation, the unbound Z122 and the RT were separated using a micro-spin desalting column.
# [5] = test system: HIV-1 with WT (wild type) RT in PBMC; experiment: Anti-HIV assay on PBMC, WT RT (p24); type: cell-based
# Procedure: as §2, with “Wurzburg Jurkat T cells (subclone JR) were transfected with 10 μg of the circularly permuted infectious molecular clone HIVNL4-3 (Adachi et al., 1986. J. Virol, 59 (2), p 284-291). Two” for “Two”
# Anti-HIV activity of the compounds was tested on Peripheral Blood Mononuclear Cells (PBMCs). These cells were separated from the blood of healthy donor using established procedures. PBMCs were cultured in RPMI medium supplemented with 10% fetal bovine serum (FBS), 1% Penicillin/Streptomycin and 20 U/ml of Interleukin-2.
# PBMCs isolated from the blood of healthy donor contain CD4^+ T-lymphocytes which are one of the main targets of HIV in infected individuals.
# Briefly, in the anti-HIV assay PBMCs, activated with phytohemagglutinin, were infected with HIV-1. 100 μl of infected PBMCs were seeded in 96-well plate at a concentration of 1 10^5 cells/ml, and 100 μl of the different drugs dilutions were added to the cells. After 4 days of incubation at 37° C., 5% CO2, cells cultures supernatants were collected. The amount of the viral capsid protein p24 in the supernatants was measured using the Innotest HIV Antigen mAb P24 kit (Innogenetics).
# [6] = molecular target: T1, HIV-1 reverse transcriptase; experiment: HIV-1 in vitro reverse transcriptase activity (fixed-time RNA dependent DNA polymerase assay); type: biochemical; details: residual RT activity, compound at 10 μM; RT activity without compound set at 100%
# Procedure: For the in vitro inhibition studies of the HIV-1 reverse transcriptase activity, stock solutions of the compounds of the present invention were prepared in dimethyl sulfoxide at a final concentration of 10 mM and kept at room temperature. Nevirapine was purchased from Boehringer Ingelheim. Efavirenz was received from the NIH AIDS Research and Reference Reagent Program.
# In vitro inhibition studies used a fixed-time assay for HIV-1 reverse transcriptase RNA dependent DNA polymerase activity. RT was purchased from Calbiochem (ref CAL382129-500). One unit of RT corresponds to the amount of enzyme which incorporates one nanomole of [^3H]TTP in 10 minutes at 37° C.
# Assays were performed in a final volume of 50 μl. […] Reaction mixtures were incubated at 37° C. for 10 min. The incorporation rate was determined by a standard trichloroacetic acid precipitation procedure (adapted from Current protocols in molecular biology. Eds Wiley, MGH Harvard medical school) and liquid scintillation counting using a Wallac scintillation counter.
# The in vitro activity of the compounds, at a final concentration of 10 μM, on the reverse transcriptase (RT) activity of HIV-1 is derivable from the relative (%) reduction in RT activity. Hereby, the RT activity in the absence of any of the compounds is set at 100%.
# [7] = molecular target: T1, HIV-1 reverse transcriptase; experiment: RT inhibition as a function of preincubation time with the RT; type: biochemical
# Source text: Z122 seems to be an irreversible inhibitor of the reverse transcriptase.
# P4 cells = experiment: Cytotoxicity (CC50), MTT assay on P4 cells; type: cell-based; details: 3 days
# Procedure: as §1, §3
SMILES,EC50 ([1]; Human immunodeficiency virus 1),SI (selectivity index = CC50/EC50) [1],EC50 ([2]; Human immunodeficiency virus 1),CC50 at 3 days [3],change in RT activity after separation of unbound compound (micro-spin desalting column) [4],EC50 ([5]; Human immunodeficiency virus 1),Relative (%) RT activity in vitro (compound added at 10 μM) [6],melting point,dependence of RT inhibition on time of (pre)incubation with the RT [7],EC50 [1],EC50 [2],CC50 (P4 cells),EC50 [5]
"CCc1c(C)[nH]c(=O)c(CSCCO)c1OC1CC(C)CC(C)C1 (stereo not shown) [Z121, 5-ethyl-6-methyl-4-[(3,5-dimethylcyclohexyl)oxy]-3-{[(2-hydroxyethyl)sulfanyl]methyl}pyridine-2(1H)-one]",< 1 nM,>27000,14 nM,27000 nM,significant increase in the RT activity,< 1 nM,1.4%,133 to 134 °C,independent of the preincubation time,,,,
CCc1c(C)[nH]c(=O)c(CSCCOC(=O)CCl)c1OC1CC(C)CC(C)C1 (stereo not shown) [Z122],,,,,did not observe any increase in the RT activity,,39.1%,,increases with respect to the time of incubation,1 nM,< 1 nM,27500 nM,< 1 nM
